According to patent US9321760B2 (Merck Patent GmbH, priority 2011, dated 2016):

Each molecule was assayed against P70S6K (T412E mutant) (Homo sapiens (Human), UniProt P23443, T412E) (assay: P70S6K enzyme assay). Details: 3 nM P70S6K T412E mutant, 24 μM ATP, 1 μM FITC-AHA-AKRRRLSSLRA-OH substrate peptide, 90 min at 25° C.
Format: biochemical
How it was run: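 IC50s come from mobility-shift separation of phospho-product from FITC-AHA-AKRRRLSSLRA-OH substrate (1 μM) after the reaction was quenched with 10 mM EDTA. The reaction used 3 nM T412E-mutant enzyme and 24 μM ATP, running 90 min at 25° C in 100 mM Hepes pH 7.5 buffer.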

Sequence of P70S6K (T412E mutant) (P23443 whole entry T412E): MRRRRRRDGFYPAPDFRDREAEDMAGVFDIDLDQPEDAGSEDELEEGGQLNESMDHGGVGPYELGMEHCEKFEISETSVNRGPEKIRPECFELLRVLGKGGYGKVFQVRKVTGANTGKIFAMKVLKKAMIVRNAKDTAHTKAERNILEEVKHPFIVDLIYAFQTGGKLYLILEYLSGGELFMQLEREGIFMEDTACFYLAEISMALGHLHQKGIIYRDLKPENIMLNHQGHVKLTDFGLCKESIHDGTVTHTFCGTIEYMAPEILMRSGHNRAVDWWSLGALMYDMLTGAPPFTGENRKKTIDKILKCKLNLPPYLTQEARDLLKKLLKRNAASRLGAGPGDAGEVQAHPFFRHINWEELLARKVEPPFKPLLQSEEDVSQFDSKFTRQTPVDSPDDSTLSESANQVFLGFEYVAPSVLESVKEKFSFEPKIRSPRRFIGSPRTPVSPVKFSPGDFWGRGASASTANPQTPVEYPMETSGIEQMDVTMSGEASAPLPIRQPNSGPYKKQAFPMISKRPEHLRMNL

First: Nc1ncnc(N2CCN(C(CN3CCCC3)c3ccc(F)cc3)CC2)c1-c1ccc(F)cc1 (centres unmarked) [Example 75, 5-(4-Fluorophenyl)-6{4-[1-(4-fluorophenyl)-2-pyrrolidin-1-yl-ethyl]-piperazin-1-yl}-pyrimidin-4-ylamine]
Second: COc1ccc([C@@H](CN2CCC2)N2CCN(c3ncnc(N)c3-c3ccc(F)cc3)CC2)cc1F [Example 105, 6-{4-[(S)-2-Azetidin-1-yl-1-(3-fluoro-4-methoxy-phenyl)-ethyl]-piperazin-1-yl}-5-(4-fluoro-phenyl)-pyrimidin-4-ylamine]
The IC50 of the first is 43-fold lower: 15 nM for the first, 640 nM for the second.

Going from NCC(c1ccc(C(F)(F)F)cc1)N1CCN(c2ncnc(N)c2C2=CCCC2)CC1 (centres unmarked) [Example 25, 6-(4-(2-amino-1-(4-(trifluoromethyl)phenyl)ethyl)piperazin-1-yl)-5-(cyclopent-1-en-1-yl)pyrimidin-4-amine] to Cn1cc(-c2c(N)ncnc2N2CCN(C(CN)c3ccc(C(F)(F)F)cc3)CC2)cn1 (centres unmarked) [Example 40, 6-{4-[2-Amino-1-(4-trifluoromethyl-phenyl)-ethyl]-piperazin-1-yl}-5-(1-methyl-1H-pyrazol-4-yl)-pyrimidin-4-ylamine], the IC50 rises from 3.4 nM to 11 nM (3.2-fold). The first is the more potent here.

Compared with N#CC(c1cccnc1)N1CCN(c2ncnc(N)c2-c2ccc(F)cc2)CC1 (centres unmarked) [Example 190, {4-[6-Amino-5-(4-fluoro-phenyl)-pyrimidin-4-yl]-piperazin-1-yl}-pyridin-3-yl-acetonitrile], N#CC(c1ccc(Cl)cc1)N1CCN(c2ncnc(N)c2-c2ccc(F)cc2)CC1 (centres unmarked) [Example 162, {4-[6-Amino-5-(4-fluoro-phenyl)-pyrimidin-4-yl]-piperazin-1-yl}-(4-chloro-phenyl)-acetonitrile] is 3.4-fold lower in IC50: 230 nM for the first, 68 nM for the second.

First: CCc1c(N)ncnc1N1CCN([C@@H](CN)c2ccc(Cl)cc2)CC1 [Example 180, 6-{4-[(R)-2-Amino-1-(4-chloro-phenyl)-ethyl]-piperazin-1-yl}-5-ethyl-pyrimidin-4-ylamine]
Second: CCOc1c(N)ncnc1N1CCN(C(CN)c2ccc(C(F)(F)F)cc2)CC1 (centres unmarked) [Example 32, 6-(4-(2-amino-1-(4-(trifluoromethyl)phenyl)ethyl)piperazin-1-yl)-5-ethoxypyrimidin-4-amine]
The IC50 of the first is 3.9-fold higher: 190 nM for the first, 48.5 nM for the second. The second is the more potent here.

Compared with COc1ccc(C(CN2CCC2)N2CCN(c3ncnc(N)c3-c3ccc(F)cc3)CC2)cc1F (centres unmarked) [Example 92, 6-{4-[2-Azetidin-1-yl-1-(3-fluoro-4-methoxy-phenyl)-ethyl]-piperazin-1-yl}-5-(4-fluoro-phenyl)-pyrimidin-4-ylamine], N#Cc1cccc([C@H](CN2CCC2)N2CCN(c3ncnc(N)c3-c3ccc(F)cc3)CC2)c1 [Example 129, 3-((R)-1-{4-[6-Amino-5-(4-fluoro-phenyl)-pyrimidin-4-yl]-piperazin-1-yl}-2-azetidin-1-yl-ethyl)-benzonitrile] is 2-fold higher in IC50: 300 nM for the first, 610 nM for the second. The first is the more potent here.

N#Cc1c(N)ncnc1N1CCC(N)(C(=O)N[C@@H](CCO)c2ccc(Cl)cc2)CC1 [Example 242, 4-Amino-1-(6-amino-5-cyano-pyrimidin-4-yl)-piperidine-4-carboxylic acid [(S)-1-(4-chloro-phenyl)-3-hydroxy-propyl]-amide] and N#Cc1c(N)ncnc1N1CCC(N)(C(=O)N[C@@H](CC(N)=O)c2ccc(Cl)cc2)CC1 [Example 221, 4-Amino-1-(6-amino-5-cyano-pyrimidin-4-yl)-piperidine-4-carboxylic acid [(S)-2-carbamoyl-1-(4-chloro-phenyl)-ethyl]-amide] are within 1.5-fold of each other in IC50: 98 nM for the first, 140 nM for the second.

Going from CN(C)C[C@H](c1ccc(C(F)(F)F)cc1)N1CCN(c2ncnc(N)c2-c2ccc(F)cc2)CC1 [Example 16, (S)-6-(4-(2-(dimethylamino)-1-(4-(trifluoromethyl)phenyl)ethyl)piperazin-1-yl)-5-(4-fluorophenyl)pyrimidin-4-amine] to NCC(c1ccc(C(F)(F)F)cc1F)N1CCN(c2ncnc(N)c2-c2ccc(F)cc2)CC1 (centres unmarked) [Example 170, 6-{4-[2-Amino-1-(2-fluoro-4-trifluoromethyl-phenyl)-ethyl]-piperazin-1-yl}-5-(4-fluoro-phenyl)-pyrimidin-4-ylamine], the IC50 rises from 4.9 nM to 12 nM (2.4-fold).

Going from Nc1ncnc(N2CCC(C(O)c3ccc(F)cc3)CC2)c1-c1ccc(F)cc1 (centres unmarked) [Example 140] to N#CC(c1ccc(F)c(Cl)c1)N1CCN(c2ncnc(N)c2-c2ccc(F)cc2)CC1 (centres unmarked) [Example 160, {4-[6-Amino-5-(4-fluoro-phenyl)-pyrimidin-4-yl]-piperazin-1-yl}-(3-chloro-4-fluoro-phenyl)-acetonitrile], the IC50 rises from 4.6 nM to 590 nM (130-fold). The first is the more potent here.

Nc1ncnc(N2CCN(C(CN3CCCC3)c3ccc(F)cc3)CC2)c1Cl (centres unmarked) [Example 81, 5-Chloro-6{4-[1-(4-fluorophenyl)-2-pyrrolidin-1-yl-ethyl]-piperazin-1-yl}-pyrimidin-4-ylamine] and Nc1ncnc(N2CCN(C(CN3CCCC3)c3cccc(C(F)(F)F)c3)CC2)c1Br (centres unmarked) [Example 69, 5-Bromo-6{4-[1-(3-trifluoromethyl-phenyl)-2-pyrrolidin-1-yl-ethyl]-piperazin-1-yl}-pyrimidin-4-ylamine] cannot be ordered by IC50: > 1000 nM for the first, > 1000 nM for the second.

First: Nc1ncnc(N2CCC(N)(C(=O)N[C@@H](CCO)c3ccc(F)cc3)CC2)c1Cl [Example 236, 4-Amino-1-(6-amino-5-chloro-pyrimidin-4-yl)-piperidine-4-carboxylic acid [(S)-1-(4-fluoro-phenyl)-3-hydroxy-propyl]-amide]
Second: NC(=O)c1c(N)ncnc1N1CCC(N)(C(=O)N[C@@H](CCO)c2ccc(Cl)cc2)CC1 [Example 247]
The IC50 of the first is 4-fold lower: 900 nM for the first, 3600 nM for the second.

Compared with CC[C@H](NC(=O)C1(N)CCN(c2ncnc(N)c2-c2cn[nH]c2)CC1)c1ccc(Cl)cc1 [Example 225, 4-Amino-1-[6-amino-5-(1H-pyrazol-4-yl)-pyrimidin-4-yl]-piperidine-4-carboxylic acid [(S)-1-(4-chloro-phenyl)-propyl]-amide], C[C@H](NC(=O)C1(N)CCN(c2ncnc(N)c2C#N)CC1)c1ccc(Cl)cc1 [Example 218, 4-Amino-1-(6-amino-5-cyano-pyrimidin-4-yl)-piperidine-4-carboxylic acid [(S)-1-(4-chloro-phenyl)-ethyl]-amide] is 2.6-fold higher in IC50: 78 nM for the first, 200 nM for the second. The first is the more potent here.

Going from NC[C@H](c1ccc(C(F)(F)F)cc1)N1CCN(c2ncnc(N)c2-c2cn[nH]c2)CC1 [Example 8, (S)-6-(4-(2-amino-1-(4-(trifluoromethyl)phenyl)ethyl)piperazin-1-yl)-5-(1H-pyrazol-4-yl)pyrimidin-4-amine] to NCC(c1ccc(OC(F)(F)F)cc1)N1CCN(c2ncnc(N)c2-c2cn[nH]c2)CC1 (centres unmarked) [Example 186, 6-(4-(2-amino-1-(4-(trifluoromethoxy)phenyl)ethyl)piperazin-1-yl)-5-(1H-pyrazol-4-yl)pyrimidin-4-amine], the IC50 falls from 3.4 nM to 1.4 nM (2.4-fold).

First: Nc1ncnc(N2CCN(C(CCCN3CCC3)c3ccc(Cl)cc3)CC2)c1-c1ccc(F)cc1 (centres unmarked) [Example 113, 6-{4-[4-Azetidin-1-yl-1-(4-chloro-phenyl)-butyl]-piperazin-1-yl}-5-(4-fluoro-phenyl)-pyrimidin-4-ylamine]
Second: NC[C@@H](c1ccc(Cl)nc1)N1CCN(c2ncnc(N)c2-c2ccc(F)cc2)CC1 [Example 175, 6-{4-[(R)-2-Amino-1-(6-chloro-pyridin-3-yl)-ethyl]-piperazin-1-yl}-5-(4-fluoro-phenyl)-pyrimidin-4-ylamine]
The IC50 of the first is higher: > 1000 nM for the first, 2.6 nM for the second.

NCC(c1ccc(F)c(C(F)(F)F)c1)N1CCN(c2ncnc(N)c2-c2ccc(F)cc2)CC1 (centres unmarked) [Example 155, 6-{4-[2-Amino-1-(4-fluoro-3-trifluoromethyl-phenyl)-ethyl]-piperazin-1-yl}-5-(4-fluoro-phenyl)-pyrimidin-4-ylamine] and CCn1cc(-c2c(N)ncnc2N2CCN(C(CN)c3ccc(C(F)(F)F)cc3)CC2)cn1 (centres unmarked) [Example 39, 6-(4-(2-amino-1-(4-(trifluoromethyl)phenyl)ethyl)piperazin-1-yl)-5-(1-ethyl-1H-pyrazol-4-yl)pyrimidin-4-amine] are within 1.5-fold of each other in IC50: 14 nM for the first, 12 nM for the second.

First: Nc1ncnc(N2CCN([C@@H](CN3CCC3)c3ccc4c(c3)OCCO4)CC2)c1-c1cn[nH]c1 [Example 107, 6-{4-[(R)-2-Azetidin-1-yl-1-(2,3-dihydro-benzo[1,4]dioxin-6-yl)-ethyl]-piperazin-1-yl}-5-(1H-pyrazol-4-yl)-pyrimidin-4-ylamine]
Second: Nc1ncnc(N2CCN(C(CN3CCC3)c3ccc(F)c(OC(F)(F)F)c3)CC2)c1-c1cn[nH]c1 (centres unmarked) [Example 114, 6-{4-[2-Azetidin-1-yl-1-(4-fluoro-3-trifluoromethoxy-phenyl)-ethyl]-piperazin-1-yl}-5-(1H-pyrazol-4-yl)-pyrimidin-4-ylamine]
The IC50 of the first is 1.6-fold higher: 5200 nM for the first, 3300 nM for the second. The second is the more potent here.

Cc1ccc([C@H](CCO)NC(=O)C2(N)CCN(c3ncnc(N)c3C(N)=O)CC2)cc1 [Example 232, 4-Amino-6-[4-amino-4-((S)-3-hydroxy-1-p-tolyl-propylcarbamoyl)-piperidin-1-yl]-pyrimidine-5-carboxylic acid amide] and N#CC(c1ccc(C(F)(F)F)cc1)N1CCN(c2ncnc(N)c2Br)CC1 (centres unmarked) [Example 167, [4-(6-Amino-5-bromo-pyrimidin-4-yl)-piperazin-1-yl]-(4-trifluoromethyl-phenyl)-acetonitrile] cannot be ordered by IC50: 23000 nM for the first, > 1000 nM for the second.

First: Nc1cc(N2CCN(C(CN3CCCCC3)c3cccc(C(F)(F)F)c3)CC2)ncn1 (centres unmarked) [Example 71, 6-{4-[1-(3-trifluoromethyl-phenyl)-2-piperidin-1-yl-ethyl]-piperazin-1-yl}-pyrimidin-4-ylamine]
Second: CC(c1ccc(Cl)cc1OC1CNC1)N1CCN(c2ncnc(N)c2-c2ccc(F)cc2)CC1 (centres unmarked) [Example 63, 6-(4-{1-[2-(Azetidin-3-yloxy)-4-chloro-phenyl]-ethyl}-piperazin-1-yl)-5-(4-fluoro-phenyl)-pyrimidin-4-ylamine]
The IC50 of the first is higher: > 1000 nM for the first, 980 nM for the second. The second is the more potent here.

With Nc1ncnc(N2CCN(Cc3cc(Cl)c(Cl)cc3O)CC2)c1-c1ccc(F)cc1 [Example 60, 2-((4-(6-amino-5-(4-fluorophenyl)pyrimidin-4-yl)piperazin-1-yl)methyl)-4,5-dichlorophenol] the IC50 was 74 nM.
